Reference: publication PMC4545913, “Dual EZH2 and EHMT2 histone methyltransferase inhibition increases biological efficacy in breast cancer cells” (Clinical Epigenetics, 2015)

Columns and labels:
Type in all cases: cell-based
[1] = test system: MCF-7; assay: MTT cell viability assay; settings: Homo sapiens, MCF7, read-out: Cell growth IC50 MCF-7
Experimental: (§1) For clonogenic assays, cells were treated with compound for 48 h, media were removed and replaced with fresh media for a further 12 days to measure colony formation. For cell viability assays, lymphoma cells were plated at 20,000 cells in 200 μl per well in U-bottom 96 well plates in RPMI medium +20 % FCS. Cells were re-suspended 48 h later, diluted 10-fold in PBS + propidium iodide (PI) and the concentration of PI negative cells was counted using an Attune flow cytometer with autosampler. Breast cancer cells were seeded at a density of 10,000 cells/well in a sterile 96 clear-well plate with 150 μl of DMEM (+10 % FCS and 2 mM L-Glutamine). Each compound treatment was performed in triplicate for 72 h at concentrations of 100 nM and 1, 5, 10 and 50 μM in 100 μl of full-medium. After 72 h, 20 μl of MTT solution (3 mg of MTT Formazan, Sigma/1 ml PBS) was added to the medium and incubated for 4 h at 37 °C in a CO2 incubator. The MTT-product was solubilised with 100 μl DMSO, and for 1 h, incubated in the dark at room temperature. The optical density was read at 570 nm with PHERAstar.

[2] = test system: SkBr3; assay: MTT cell viability assay; settings: Homo sapiens, SK-BR-3, read-out: Cell growth IC50 SkBr3
Experimental: as §1

[3] = test system: T-47D; assay: MTT cell viability assay; settings: Homo sapiens, T47D, read-out: Cell growth IC50 T-47D
Experimental: as §1

[4] = test system: BT-474; assay: MTT cell viability assay; settings: Homo sapiens, read-out: Cell growth IC50 BT-474
Experimental: as §1

[5] = test system: MDA-MB-231 cells; assay: Caspase 3/7 activity (apoptosis); settings: MDA-MB-231, dose-dependent (Figure S2)
[6] = test system: MCF10a; assay: MTT cell viability assay, normal breast epithelial cell line; settings: Homo sapiens, MCF-10A, read-out: Cell growth IC50 MCF10a
Experimental: as §1

[7] = test system: H3K27me3 and H3K9me3; assay: Western analysis of global histone marks in MDA-MB-231 cells; settings: range of doses
Experimental: MDA-MB-231 cells seeded in 6 well plates at a cell density of 3 x 10^5 were treated with HKMTI-1-005 (1–7.5uM) for 48 h. Following lysis in Triton Extraction Buffer (TEB, PBS containing 0.5 % Triton ×100 (v/v), 1/1000 protease inhibitor), nuclei were re-suspended in 0.2 N HCL at a density of 4 x 10^7 nuclei per millilitre and incubated overnight at 4 °C to acid-extract the histones, before being centrifuged at 6500g for 10 min at 4 °C. Protein concentration was determined using the Bradford assay. H3K27me3, H3K9me3, H3K9me2, H3K9me and total H3 protein expression levels in the histone extract samples were determined using Western blot analysis using H3K27me3 (1:1000; Abcam), H3K9me3 (1:1000; Abcam), H3K9me (1:1000) and H3 (1:2000; Abcam) antibodies. After washing, the membrane was incubated with a horseradish peroxidase-labelled secondary antibody (1 h, room temperature). The membrane was incubated for 1 min with 5 mL of Pierce ECL Western blotting substrate (Thermo Scientific). Images were captured using Konica Minolta SRX101A Tabletop X-Ray film processor.

[8] = test system: WILL1; assay: Lymphoma cell growth, cell counting following propidium iodide staining; settings: WILL-1, EZH2 W.T., 48 h, PI negative cell count
Experimental: as §1

[9] = test system: SUDLH8; assay: as above; settings: EZH2 W.T. (amplified), 48 h, PI negative cell count
Experimental: as §1

[10] = test system: DOHH2; assay: as above; settings: Homo sapiens, DOHH-2, EZH2 W.T., 48 h, PI negative cell count
Experimental: as §1

[11] = test system: SC1; assay: as above; settings: Homo sapiens, SC-1, EZH2 W.T., 48 h, PI negative cell count
Experimental: as §1

[12] = test system: WSU-FSCLL; assay: as above; settings: EZH2 W.T., 48 h, PI negative cell count
Experimental: as §1

[13] = test system: DB; assay: as above; settings: Homo sapiens, EZH2 Mutant Y646N, 48 h, PI negative cell count
Experimental: as §1

- IC50 [1]: 7.7 µM
- IC50 [3]: 8.5 µM
- IC50 [4]: 2.1 µM
- IC50 [8]: 5.6 µM
- IC50 [9]: < 1 µM
- IC50 [10]: 3.26 µM
- IC50 [11]: 3.71 µM
- IC50 [12]: 3.41 µM
- IC50 [13]: < 1 µM
Structure (SMILES): COc1cc2nc(N3CCN(C)CC3)nc(NC3CCN(Cc4ccccc4)CC3)c2cc1OC [HKMTI-1-005]
- IC50 [2]: 7.7 µM
- Induction of apoptosis measured by Caspase 3/7 activity [5]: induces apoptosis
- IC50 [6]: > 15 µM
- Global levels of H3K27me3 and H3K9me3 (Western) [7]: reduced
